Laboratory results: US20210059963A1, “Beta-blockers for treating and/or preventing pathological scars” (GENEPRED BIOTECHNOLOGIES, priority 2017, published 2021)

Key:
Assay type in all cases: in vivo, human
[1] = test system: patients with keloid scars; experiment: Effect of propranolol on itching associated with keloids (patient report)
From the text: (§1) During a clinical evaluation and treatment of subjects infected with Schistosoma mansoni in Uganda, the inventors used propranolol to lower portal blood pressure in subjects with severe liver disease (hepatic fibrosis) and splenomegaly. High portal blood pressure causes the development of oesophageal varices and variceal bleedings that are the principal cause of death in S.mansoni-infected subjects. Propranolol is currently used to reduce the risk of variceal bleedings because that drug has blocking effects on beta receptors of the nervous system, thus reducing portal pressure. Five to ten percent of the 5000 fishermen and fisher women of the study had haemorrhagic bleedings from oesophageal varices or were at risk of bleeding. In an attempt to reduce bleedings, propranolol was given to them by the oral route, one 40 mg pill per day. This molecule has little side effects and can be prescribed safely for very long periods excepted to asthmatic subjects and to patients with cardiac problems.
(§2) During the study, one of the patients had mentioned that their keloid scars were not itching any more since they were treated for high portal pressure. This prompted the inventors to check whether this effect had also been noticed by other patients under the same treatment. The data presented here, have been obtained on 30 of these patients, they were collected from 30 out of 60 patients who had received this same treatment because of a high risk of variceal bleedings. The remaining 30 patients were not available, at that time, for evaluation of the propranolol effects.
(§3) Keloid Grading: Patient keloid scars were classified as low, intermediate or high severity.
(§4) Low severity corresponded to one or two scars on any part of the body, intermediate severity corresponded to various scars (including large cordons) on at least 3 different part of the body. Severe grades keloids combined extended large patches and many long and large scars on different part of the body.
(§5) Statistical analysis was performed using the SPSS software. The effects of the treatment were tested with the nonparametric Wlcoxon test performed on paired data (before and after treatment). P values were calculated for a two sided test.

[2] = test system: patients with keloid scars; experiment: Effect of propranolol on pain associated with keloids (patient report)
From the text: as §1, §2, §3, §4, §5

[3] = test system: patients with keloid scars; experiment: Overall evaluation of the effect of the treatment on patient clinical conditions
From the text: as §1, §2
The proposed answers were: a lot of improvement, much improvement, a little improvement and no improvement. […] Only one answer per patient was accepted. Forty four (44.8%) and twenty seven (27.6%) percent of the patients estimated that the treatment had improved either much or a lot their condition, respectively.

[4] = Global 1 + 2, 40 mg per day for 2 to 4 days, oral
[5] = Global 1 + 2, 40 mg per day for 2 to 4 days, oral, listed as propranol
[6] = Itching prior to Treatment 1, oral 40 mg per day
[7] = Itching prior to Treatment 2, oral 40 mg per day
[8] = share of patients with this effect who had Itching prior to Treatment 1
[9] = share of patients with this effect who had Itching prior to Treatment 2
[10] = Global 1 + 2, oral 40 mg per day
[11] = Pain Prior to Propranolol 1, oral 40 mg per day
[12] = Pain Prior to Propranolol 2, oral 40 mg per day
[13] = share of patients with this effect who had Pain Prior to Propranolol 1
[14] = share of patients with this effect who had Pain Prior to Propranolol 2

CC(C)NCC(O)COc1cccc2ccccc12 (centres unmarked) [propranolol]
Effect of Propranolol on Itching: none, % in 1 + 2 [1, 4]: 20.0% | Effect of Propranolol on Itching: partial (marked reduction), % in 1 + 2 [1, 4]: 56.7% | Effect of Propranolol on Itching: total, % in 1 + 2 [1, 4]: 23.3% | Effect of Propranolol on Itching: none, % in 1 + 2 [1, 5]: Twenty | Effect of Propranolol on Itching: total, % in 1 + 2 [1, 5]: 23.6% | Effect of Propranolol on Itching: none, % in 1 [1, 6]: 0.0% | Effect of Propranolol on Itching: partial, % in 1 [1, 6]: 80.0% | Effect of Propranolol on Itching: total, % in 1 [1, 6]: 20.0% | Effect of Propranolol on Itching: none, % in 2 [1, 7]: 30.0% | Effect of Propranolol on Itching: partial, % in 2 [1, 7]: 45.0% | Effect of Propranolol on Itching: total, % in 2 [1, 7]: 25.0% | treated patients confirming that oral administration reduced keloid scar itching ([1]; oral administration, 30 patients): 80% | effect of the treatment on itching as a function of keloid grades ([1]; patients with all keloid grades (low, intermediate, high), FIG. 1): reduced | Effect of Propranolol on Itching: none, % in none/partial/total [1, 8]: 0% | Effect of Propranolol on Itching: partial, % in none/partial/total [1, 8]: 47.1% | Effect of Propranolol on Itching: total, % in none/partial/total [1, 8]: 28.6% | Effect of Propranolol on Itching: none, % in none/partial/total [1, 9]: 100% | Effect of Propranolol on Itching: partial, % in none/partial/total [1, 9]: 52.9% | Effect of Propranolol on Itching: total, % in none/partial/total [1, 9]: 71.4% | study subjects reporting no effects of the treatment on keloid associated pain [2]: 20% | study subjects reporting reduction of the pain [2]: 56.7% | Effects of Propranolol on Pain: Total, % in 1 + 2 [2, 10]: 29.2% | Effects of Propranolol on Pain: none, % in 1 + 2 [2, 10]: 25.0% | Effects of Propranolol on Pain: partial, % in 1 + 2 [2, 10]: 45.8% | Effects of Propranolol on Pain: Total, % in 1 [2, 11]: 35.7% | Effects of Propranolol on Pain: none, % in 1 [2, 11]: 28.6% | Effects of Propranolol on Pain: partial, % in 1 [2, 11]: 35.7% | Effects of Propranolol on Pain: Total, % in 2 [2, 12]: 20.0% | Effects of Propranolol on Pain: none, % in 2 [2, 12]: 20.0% | Effects of Propranolol on Pain: partial, % in 2 [2, 12]: 60.0% | study subjects reporting a total abolition of pain ([2]; for at least 2 to 3 days): 23.3% | effect of the treatment on pain as a function of keloid grades ([2]; patients with all keloid grades (low, intermediate, high), FIG. 2): reduced | Effects of Propranolol on Pain: Total, % in none/partial/total [2, 13]: 71.4% | Effects of Propranolol on Pain: none, % in none/partial/total [2, 13]: 66.7% | Effects of Propranolol on Pain: partial, % in none/partial/total [2, 13]: 45.5% | Effects of Propranolol on Pain: Total, % in none/partial/total [2, 14]: 28.6% | Effects of Propranolol on Pain: none, % in none/partial/total [2, 14]: 33.3% | Effects of Propranolol on Pain: partial, % in none/partial/total [2, 14]: 54.5% | patients estimating that the treatment had improved a lot their condition ([3]; answer: a lot of improvement, FIG. 3): 27.6% | patients estimating that the treatment had improved much their condition ([3]; answer: much improvement, FIG. 3): 44.8% | patients who felt that the treatment had clearly improved their clinical status ([3]; total of much and a lot of improvement): 72.4%
